ChEMBL document CHEMBL5356970, “Syntheses of the ω-pyridinium-containing very-long-chain ceramides PyrCer(24:1(15Z)) and PyrCer(24:0) and their anticancer activity” (Bioorg Med Chem Lett, 2024)

Each compound was assayed on HepG2 (assay: Anticancer activity against human HepG2 cells assessed as reduction in cell survival).
Type: functional, cell-based

Going from CCCCCCCC/C=C\CCCCCCCCCCCCCC(=O)N[C@@H](CO)[C@H](O)/C=C/CCCCCCCCCCCCC to CCCCCCCCCCCCC/C=C/[C@@H](O)[C@H](CO)NC(=O)CCCCCCCCCCCCCCCCCCCCCCC, the IC50 falls from > 200 µM to 189 µM.

First: CCCCCCCCCCCCC/C=C/[C@@H](O)[C@H](CO)NC(=O)CCCCCCCCCCCCC/C=C\CCCCCCCC[n+]1ccccc1
Second: CCCCCCCCCCCCC/C=C/[C@@H](O)[C@H](CO)NC(=O)CCCCCCCCCCCCCCCCCCCCCCC[n+]1ccccc1
The IC50 of the first is 9.9-fold lower: 1 µM for the first, 9.9 µM for the second.
